For six molecules, melting point results are on record in patent publication US20040048838A1, “Meiosis regulating compounds” (priority 1995, published 2004).

Each structure is given as a SMILES string.

For orientation: melting point means the temperature, or range, at which the solid turns liquid. `CC(C)CCC[C@@H](C)[C@H]1CC=C2C3=C(CC[C@@]21C)[C@@]1(C)CC=CCC1CC3` (stereo partly drawn) gave a melting point of 104.7 °C.

On to `CC(C)CCC[C@@H](C)[C@H]1[C@@H](O)C[C@H]2C3=CC=C4C(C)(C)[C@@H](O)CC[C@]4(C)[C@H]3CC[C@]12C`, for which the melting point was 171 to 173 °C.

As for `C[C@@H](CO)CCC[C@@H](C)[C@H]1CC=C2C3=C(CC[C@@]21C)[C@@]1(C)CC[C@H](O)C(C)(C)[C@@H]1CC3`, the melting point was in the range of 180 to 181 °C.

In turn, `C[C@H](CCC(=O)N(C)C)[C@H]1CC=C2C3=C(CC[C@@]21C)[C@@]1(C)CC[C@H](O)C(C)(C)[C@@H]1CC3` had a melting point of 192 to 195 °C.

On to `C[C@@H](CI)CCC[C@@H](C)[C@H]1CC=C2C3=C(CC[C@@]21C)[C@@]1(C)CC[C@H](O)C(C)(C)[C@@H]1CC3`, for which the melting point stood at 148 °C.

Molecule `C[C@@H](CCl)CCC[C@@H](C)[C@H]1CC=C2C3=C(CC[C@@]21C)[C@@]1(C)CC[C@H](O)C(C)(C)[C@@H]1CC3` showed a melting point of 145 to 145.5 °C.
